From ChEMBL document CHEMBL1201862, “PubChem BioAssay data set” (2004)
Calls of active or inactive are those of the source.

Experiments:
[1] = Luminescence Cell-Based Dose Response HTS to Identify Activators of Luciferase Translation or Activity in H4 […] Cells. [Related pubchem assays: 1829 (Project Summary), 1814 (Primary HTS)]; type: functional
[2] = Luminescence Cell-Based Dose Response to Identify Activators of Luciferase Translation or Activity in H4-C Neuroglioblastoma Cells. [Related pubchem assays: 1829 (Project Summary), 1814 (Primary HTS)]; type: functional
[3] = Luminescence Cell-Based Dose Confirmation to Identify Activators of 5'UTR Stem-Loop Driven Alpha-Synuclein mRNA Translation in H4 Neuroglioblastoma Cells. [Related pubchem assays: 1829 (Project Summary), 1814 (Primary HTS)]; type: functional
[4] = target: T1, Oxysterols receptor LXR-beta (Homo sapiens, UniProt P55055); type: functional, cell-based;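 further: agonist activity at LXR measured by a cell-based luminescence readout across a dose range, run as a counterscreen for daf-12 agonists; HEK293 cells with Gal4-LXR fusion and GAL4-driven luciferase reporter; potency for activation of Gal4-LXR reporter so compounds are agonists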
T1 sequence (P55055 whole entry): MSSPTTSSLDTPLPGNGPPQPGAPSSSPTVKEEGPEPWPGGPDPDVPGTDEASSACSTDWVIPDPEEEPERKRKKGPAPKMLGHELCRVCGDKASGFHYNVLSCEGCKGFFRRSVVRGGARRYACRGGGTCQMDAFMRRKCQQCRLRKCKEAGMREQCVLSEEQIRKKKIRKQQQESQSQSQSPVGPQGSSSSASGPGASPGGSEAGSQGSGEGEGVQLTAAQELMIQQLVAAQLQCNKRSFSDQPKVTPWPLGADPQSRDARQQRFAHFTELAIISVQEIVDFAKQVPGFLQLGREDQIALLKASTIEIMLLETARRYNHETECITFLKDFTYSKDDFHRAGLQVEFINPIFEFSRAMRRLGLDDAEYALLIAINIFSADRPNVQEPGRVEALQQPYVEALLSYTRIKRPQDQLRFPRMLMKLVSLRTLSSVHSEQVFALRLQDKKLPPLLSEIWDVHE

H4 = assay: Luminescence Cell-Based Dose Response HTS to Identify Activators of 5'UTR Stem-Loop Driven Prion Protein mRNA Translation in H4 Neuroglioblastoma Cells. [Related pubchem assays: 1829 (Project Summary), 1814 (Primary HTS)]; type: functional; conditions: Homo sapiens
[5] = Luminescence Cell-Based Dose Response to Identify Activators of 5'UTR Stem-Loop Driven Prion Protein mRNA Translation in H4-C Neuroglioblastoma Cells. [Related pubchem assays: 1829 (Project Summary), 1814 (Primary HTS)]; type: functional
Vero [6] = assay: inhibition of WNV-induced cytopathic effect – cell-based, CPE readout (AID 1621); type: functional; conditions: Chlorocebus sabaeus
Vero [7] = assay: cells; type: functional; conditions: Chlorocebus sabaeus
[8] = viability of uninfected HEp-2 cells – cell-based, HTS, cytotoxicity control for RSV inhibitor project, dose response (AID 2410); type: functional; conditions: human respiratory syncytial virus
Vero [9] = assay: cells; type: functional, cell-based; conditions: Chlorocebus sabaeus
[10] = target: T2, Voltage-gated inwardly rectifying potassium channel KCNH2 (Homo sapiens, UniProt Q12809); assay: concentration-dependent hERG rescue from blockers – cell-based, thallium flux, dose response (AID 2121); type: ADME
T2 sequence (Q12809 whole entry): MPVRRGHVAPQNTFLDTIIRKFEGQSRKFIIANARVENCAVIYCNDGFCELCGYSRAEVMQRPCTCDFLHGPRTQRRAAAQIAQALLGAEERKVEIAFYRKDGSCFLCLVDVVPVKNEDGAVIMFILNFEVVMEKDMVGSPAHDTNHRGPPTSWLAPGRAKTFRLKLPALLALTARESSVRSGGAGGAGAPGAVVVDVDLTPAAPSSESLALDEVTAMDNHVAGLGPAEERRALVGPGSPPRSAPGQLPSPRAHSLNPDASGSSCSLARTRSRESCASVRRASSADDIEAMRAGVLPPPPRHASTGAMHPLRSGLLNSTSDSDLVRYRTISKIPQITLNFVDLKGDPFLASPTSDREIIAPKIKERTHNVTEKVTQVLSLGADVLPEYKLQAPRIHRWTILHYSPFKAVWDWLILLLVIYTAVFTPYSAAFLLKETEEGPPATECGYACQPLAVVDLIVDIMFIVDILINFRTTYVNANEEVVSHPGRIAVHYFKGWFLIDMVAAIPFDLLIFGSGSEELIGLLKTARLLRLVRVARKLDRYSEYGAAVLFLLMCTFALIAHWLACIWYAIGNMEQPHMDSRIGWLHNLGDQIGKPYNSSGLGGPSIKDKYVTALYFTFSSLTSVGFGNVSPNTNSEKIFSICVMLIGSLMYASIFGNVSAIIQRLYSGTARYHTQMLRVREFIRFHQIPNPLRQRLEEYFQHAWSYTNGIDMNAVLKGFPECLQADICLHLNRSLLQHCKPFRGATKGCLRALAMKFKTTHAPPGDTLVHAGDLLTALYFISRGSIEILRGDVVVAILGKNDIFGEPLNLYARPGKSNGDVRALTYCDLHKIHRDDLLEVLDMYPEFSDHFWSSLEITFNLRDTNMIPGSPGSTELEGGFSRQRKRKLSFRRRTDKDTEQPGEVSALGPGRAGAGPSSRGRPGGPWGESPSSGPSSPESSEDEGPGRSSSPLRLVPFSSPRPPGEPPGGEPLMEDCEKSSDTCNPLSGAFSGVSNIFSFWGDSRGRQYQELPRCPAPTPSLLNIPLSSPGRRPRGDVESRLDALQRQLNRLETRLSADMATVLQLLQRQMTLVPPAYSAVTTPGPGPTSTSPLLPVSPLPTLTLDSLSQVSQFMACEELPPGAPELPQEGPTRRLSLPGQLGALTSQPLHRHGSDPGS

[11] = target: Potassium voltage-gated channel subfamily KQT member 2 (Rattus norvegicus, UniProt O88943, W236L); assay: potentiation of rat KCNQ2 current – cell-based, automated electrophysiology, mechanism study for KCNQ2 potentiator project, dose response (AID 2603); type: functional
[12] = target: T3, Heat shock factor protein 1 (Mus musculus, UniProt P38532); assay: decrease of HSF1-responsive luciferase luminescence – cell-based, NIH3T3, dose retest, confirmation (AID 2382); type: functional;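 further: NIH3T3 fibroblasts with HSF1-driven luciferase reporter stressed by proteasome inhibitor MG132; luminescence from HSF1-driven luciferase expression after 8 hours of MG132 stress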
T3 sequence (P38532 whole entry): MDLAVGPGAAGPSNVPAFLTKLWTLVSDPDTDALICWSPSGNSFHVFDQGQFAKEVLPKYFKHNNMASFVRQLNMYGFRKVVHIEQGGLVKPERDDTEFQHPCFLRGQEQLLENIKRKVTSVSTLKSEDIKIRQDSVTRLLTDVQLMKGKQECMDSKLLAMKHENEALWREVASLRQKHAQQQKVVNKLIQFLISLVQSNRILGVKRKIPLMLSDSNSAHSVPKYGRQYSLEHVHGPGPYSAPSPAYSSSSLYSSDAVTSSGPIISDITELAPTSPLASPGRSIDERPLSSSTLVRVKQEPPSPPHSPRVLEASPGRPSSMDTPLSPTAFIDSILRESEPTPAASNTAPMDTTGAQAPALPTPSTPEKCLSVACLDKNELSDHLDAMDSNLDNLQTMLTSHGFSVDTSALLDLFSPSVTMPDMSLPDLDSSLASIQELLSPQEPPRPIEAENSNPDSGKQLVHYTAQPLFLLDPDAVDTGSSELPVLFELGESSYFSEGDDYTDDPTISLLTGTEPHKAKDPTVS

Ephrin type-A receptor 4 = Ephrin type-A receptor 4 (Mus musculus, UniProt Q03137); assay: EphA4 ligand-binding antagonists – biochemical, colorimetric, mouse EphA4, primary screen (AID 689); type: functional
Sequence of Ephrin type-A receptor 4 (Q03137 whole entry): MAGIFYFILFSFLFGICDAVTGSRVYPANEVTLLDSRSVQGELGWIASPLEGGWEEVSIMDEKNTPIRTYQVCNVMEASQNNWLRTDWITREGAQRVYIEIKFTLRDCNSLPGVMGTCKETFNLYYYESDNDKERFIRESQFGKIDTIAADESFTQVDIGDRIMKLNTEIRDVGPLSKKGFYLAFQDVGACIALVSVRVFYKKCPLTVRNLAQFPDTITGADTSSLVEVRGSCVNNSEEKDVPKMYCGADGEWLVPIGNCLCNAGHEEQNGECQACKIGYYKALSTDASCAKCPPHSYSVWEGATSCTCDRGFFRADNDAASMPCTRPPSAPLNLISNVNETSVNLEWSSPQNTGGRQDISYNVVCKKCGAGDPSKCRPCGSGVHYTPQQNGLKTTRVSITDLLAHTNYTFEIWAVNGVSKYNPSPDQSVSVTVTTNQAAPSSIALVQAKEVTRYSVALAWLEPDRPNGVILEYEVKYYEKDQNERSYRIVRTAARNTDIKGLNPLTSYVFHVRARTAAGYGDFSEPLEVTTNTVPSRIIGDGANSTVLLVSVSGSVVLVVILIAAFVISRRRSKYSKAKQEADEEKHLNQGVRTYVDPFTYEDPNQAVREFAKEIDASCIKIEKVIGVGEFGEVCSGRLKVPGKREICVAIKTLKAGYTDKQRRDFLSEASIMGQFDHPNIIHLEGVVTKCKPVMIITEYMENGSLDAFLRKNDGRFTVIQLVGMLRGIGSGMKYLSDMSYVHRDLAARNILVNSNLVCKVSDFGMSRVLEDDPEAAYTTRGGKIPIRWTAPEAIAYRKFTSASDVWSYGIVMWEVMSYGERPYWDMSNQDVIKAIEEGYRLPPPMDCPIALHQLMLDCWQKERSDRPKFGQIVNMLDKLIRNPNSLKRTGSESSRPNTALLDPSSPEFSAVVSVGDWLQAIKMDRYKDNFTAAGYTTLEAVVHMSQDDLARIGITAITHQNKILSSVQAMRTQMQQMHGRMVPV

[13] = target: Neuropeptide Y receptor type 1 (Homo sapiens, UniProt P25929); type: functional;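 further: HEK293 cells with a CNG channel challenged with NPY then isoproterenol; potency as antagonist that reverses NPY suppression of cAMP signal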
Sequence of Neuropeptide Y receptor type 1 (P25929 whole entry): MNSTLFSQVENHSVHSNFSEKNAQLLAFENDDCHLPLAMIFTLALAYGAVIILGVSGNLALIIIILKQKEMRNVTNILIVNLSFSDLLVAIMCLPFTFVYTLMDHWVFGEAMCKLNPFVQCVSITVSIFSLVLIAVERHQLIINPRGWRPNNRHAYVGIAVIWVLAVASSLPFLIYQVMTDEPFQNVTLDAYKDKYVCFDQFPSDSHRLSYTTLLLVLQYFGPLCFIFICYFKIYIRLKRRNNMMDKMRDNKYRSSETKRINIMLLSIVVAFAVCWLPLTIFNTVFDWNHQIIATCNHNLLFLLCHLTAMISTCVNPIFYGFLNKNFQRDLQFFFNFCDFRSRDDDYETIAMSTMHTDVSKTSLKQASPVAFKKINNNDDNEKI

[14] = target: Neuropeptide Y receptor type 2 (Homo sapiens, UniProt P49146); type: functional, cell-based;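 further: HEK293 cells expressing the receptor and a CNG channel; stimulus was NPY near EC95 followed by isoproterenol to raise cAMP; antagonist potency measured as restoring cAMP signal that NPY suppresses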
Sequence of Neuropeptide Y receptor type 2 (P49146 whole entry): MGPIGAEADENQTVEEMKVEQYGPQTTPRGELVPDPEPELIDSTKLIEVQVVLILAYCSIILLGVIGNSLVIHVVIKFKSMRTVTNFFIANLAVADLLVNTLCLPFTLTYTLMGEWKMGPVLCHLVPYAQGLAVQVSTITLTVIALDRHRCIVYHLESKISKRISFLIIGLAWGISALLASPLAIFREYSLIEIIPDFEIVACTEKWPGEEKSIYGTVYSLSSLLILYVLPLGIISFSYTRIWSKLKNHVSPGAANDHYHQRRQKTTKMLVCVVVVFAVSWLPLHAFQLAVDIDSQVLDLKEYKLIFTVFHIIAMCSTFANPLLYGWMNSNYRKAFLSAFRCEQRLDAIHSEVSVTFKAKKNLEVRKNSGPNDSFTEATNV

[15] = Luminescent dose response cell-based high throughput screening assay for inhibitors of the Janus kinase 2 mutant JAK2V617F. [Related pubchem assays: 1446 (Primary screen.), 1521 (Confirmation assay.), 1486 (Counter screen.)]; type: functional
Large T antigen = Large T antigen (Simian virus 40, UniProt P03070); type: functional, Betapolyomavirus macacae;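 further: Confirmatory-stage PubChem screen for compounds that inhibit SV40 T antigen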
[16] = target: T2, Voltage-gated inwardly rectifying potassium channel KCNH2; conditions: Potency
Ion channel NompC [17] = target: T4, Ion channel NompC (Danio rerio, UniProt Q7T1G6); assay: Late stage counterscreen for the probe development effort to identify selective agonists of the Transient Receptor Potential Channels 3 (TRPML3): fluorescence-based cell-based dose response assay for TRPN1 agonists.; type: functional
T4 sequence (Q7T1G6 whole entry): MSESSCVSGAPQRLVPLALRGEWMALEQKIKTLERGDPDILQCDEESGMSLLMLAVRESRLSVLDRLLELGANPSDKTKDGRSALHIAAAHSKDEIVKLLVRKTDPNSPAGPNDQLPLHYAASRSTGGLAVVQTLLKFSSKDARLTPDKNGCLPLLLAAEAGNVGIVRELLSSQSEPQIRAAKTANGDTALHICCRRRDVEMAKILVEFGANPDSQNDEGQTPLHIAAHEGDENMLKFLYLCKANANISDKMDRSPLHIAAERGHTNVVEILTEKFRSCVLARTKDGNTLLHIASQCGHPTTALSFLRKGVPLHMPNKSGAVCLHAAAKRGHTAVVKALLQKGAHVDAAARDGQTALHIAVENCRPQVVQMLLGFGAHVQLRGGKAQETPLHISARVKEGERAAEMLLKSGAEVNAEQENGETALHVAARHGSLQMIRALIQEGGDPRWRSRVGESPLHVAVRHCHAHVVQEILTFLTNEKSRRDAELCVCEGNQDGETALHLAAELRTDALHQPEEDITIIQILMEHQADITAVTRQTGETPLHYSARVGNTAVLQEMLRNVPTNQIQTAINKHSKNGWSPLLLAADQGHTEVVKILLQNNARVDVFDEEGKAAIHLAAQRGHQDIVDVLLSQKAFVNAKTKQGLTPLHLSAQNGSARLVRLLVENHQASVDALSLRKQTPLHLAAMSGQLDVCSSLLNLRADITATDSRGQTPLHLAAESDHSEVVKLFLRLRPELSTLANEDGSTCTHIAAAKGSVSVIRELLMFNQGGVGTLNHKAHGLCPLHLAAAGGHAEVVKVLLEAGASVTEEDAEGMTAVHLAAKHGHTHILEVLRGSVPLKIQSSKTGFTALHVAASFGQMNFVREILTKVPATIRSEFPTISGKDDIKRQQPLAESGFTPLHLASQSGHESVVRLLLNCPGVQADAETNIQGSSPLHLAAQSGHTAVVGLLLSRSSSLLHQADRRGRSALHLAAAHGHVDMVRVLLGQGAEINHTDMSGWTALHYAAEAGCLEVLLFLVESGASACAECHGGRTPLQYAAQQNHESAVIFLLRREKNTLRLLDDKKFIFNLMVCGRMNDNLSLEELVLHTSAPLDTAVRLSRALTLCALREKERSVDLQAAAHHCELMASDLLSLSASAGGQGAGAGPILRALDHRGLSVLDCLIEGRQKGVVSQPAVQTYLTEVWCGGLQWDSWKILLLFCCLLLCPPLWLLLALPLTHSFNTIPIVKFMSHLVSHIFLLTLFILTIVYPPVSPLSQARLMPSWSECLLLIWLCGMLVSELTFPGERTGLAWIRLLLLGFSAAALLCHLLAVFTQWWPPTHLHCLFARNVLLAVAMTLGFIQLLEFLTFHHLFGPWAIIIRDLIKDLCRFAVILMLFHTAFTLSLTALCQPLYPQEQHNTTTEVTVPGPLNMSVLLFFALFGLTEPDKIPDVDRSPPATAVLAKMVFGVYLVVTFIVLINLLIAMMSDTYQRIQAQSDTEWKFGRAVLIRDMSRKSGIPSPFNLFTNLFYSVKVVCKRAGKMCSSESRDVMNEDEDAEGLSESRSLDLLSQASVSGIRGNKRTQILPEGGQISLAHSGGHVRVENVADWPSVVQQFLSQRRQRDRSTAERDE

Ion channel NompC [18] = target: T4, Ion channel NompC; assay: Fluorescence counterscreen assay for TRPML3 agonists: dose response cell-based high-throughput screening assay to identify agonists of the transient receptor potential channel N1 (TRPN1). [Related pubchem assays: 1526, 1424, 1448 ]; type: functional
Mucolipin-3 [19] = target: T5, Mucolipin-3 (Homo sapiens, UniProt Q8TDD5); assay: Dose response cell-based high-throughput screening assay for agonists of the transient receptor potential channel ML3 (TRPML3). [Related pubchem assays: 1526, 1424, 1448 ]; type: functional
T5 sequence (Q8TDD5 whole entry): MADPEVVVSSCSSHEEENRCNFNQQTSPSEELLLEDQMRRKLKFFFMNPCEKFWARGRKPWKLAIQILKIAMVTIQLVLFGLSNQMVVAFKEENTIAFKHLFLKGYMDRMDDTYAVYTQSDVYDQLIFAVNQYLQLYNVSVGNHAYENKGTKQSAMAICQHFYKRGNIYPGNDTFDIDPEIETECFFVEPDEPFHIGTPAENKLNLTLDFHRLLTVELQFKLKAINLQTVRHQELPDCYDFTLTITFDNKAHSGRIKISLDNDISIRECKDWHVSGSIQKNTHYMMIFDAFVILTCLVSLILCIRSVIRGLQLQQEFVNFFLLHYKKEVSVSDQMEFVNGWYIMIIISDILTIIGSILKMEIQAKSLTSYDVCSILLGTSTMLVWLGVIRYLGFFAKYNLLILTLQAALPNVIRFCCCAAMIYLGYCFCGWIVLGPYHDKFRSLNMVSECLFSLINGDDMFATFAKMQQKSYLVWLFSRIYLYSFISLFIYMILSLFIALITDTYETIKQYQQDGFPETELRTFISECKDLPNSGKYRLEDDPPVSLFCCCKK

Mucolipin-3 [20] = target: T5, Mucolipin-3; assay: human mucolipin-3 activators, concentration-response – cell-based, calcium fluorescence, dose response (AID 2510); type: functional
[21] = A549 cell cytotoxicity, dose response, cytotoxicity control, plate reader, cherry-pick, antagonist series (AID 743412); type: functional, cell-based
Paired box protein Pax-8 = Paired box protein Pax-8 (Homo sapiens, UniProt Q06710); assay: PAX8 transcriptional activity inhibition in RMG-I – RMG-I cells, luciferase, cherry-pick, dose response (AID 687027); type: functional, cell-based;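 further: luciferase reporter driven by Pax8 target thyroperoxidase promoter measured by SteadyGlo luminescence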
Sequence of Paired box protein Pax-8 (Q06710 whole entry): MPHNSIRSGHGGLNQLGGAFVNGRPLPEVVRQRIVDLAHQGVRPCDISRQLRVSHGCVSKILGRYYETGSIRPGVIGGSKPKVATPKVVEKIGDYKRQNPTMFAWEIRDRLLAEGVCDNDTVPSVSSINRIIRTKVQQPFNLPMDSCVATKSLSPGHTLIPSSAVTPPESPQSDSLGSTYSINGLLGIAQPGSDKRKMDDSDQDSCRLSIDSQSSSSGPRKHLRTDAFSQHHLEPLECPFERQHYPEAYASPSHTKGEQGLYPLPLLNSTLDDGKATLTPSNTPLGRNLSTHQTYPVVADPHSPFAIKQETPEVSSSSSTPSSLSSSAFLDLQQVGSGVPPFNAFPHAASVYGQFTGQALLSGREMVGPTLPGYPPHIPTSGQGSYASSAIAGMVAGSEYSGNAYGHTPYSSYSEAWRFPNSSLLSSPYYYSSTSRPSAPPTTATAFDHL

[22] = target: Sphingosine 1-phosphate receptor 1 (Homo sapiens, UniProt P21453); type: functional;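 further: Tango beta-arrestin reporter U2OS cells stimulated with S1P near its EC80; inhibitor potency meaning antagonism of receptor activation by the natural agonist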
[23] = general cell-killing toxicity readout – plate reader, dry powder samples, cytotoxicity control for PAX8 inhibitor project, dose response (AID 743021); type: functional, cell-based
[24] = blockers of bursicon-stimulated LGR2 cAMP reporter – cell-based, HEK293, CRE-luciferase reporter, cherry pick, set 2, dose response (AID 743343); type: functional;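 further: transfected cells were stimulated with diluted bursicon conditioned medium after compound addition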
A-375 = assay: proliferation inhibition in MITF-low A375 cells – cell-based, cherry-pick samples, set 2, counter-screen for MITF modulator project, dose response (AID 540335); type: functional; conditions: Homo sapiens
[25] = blockade of melanocortin 4 receptor signaling – cell-based, plate reader, cherry pick, counter-screen for LGR2 antagonist project, dose response (AID 743444); type: functional;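 further: transfected HEK 293 cells stimulated with alpha-MSH peptide; potency of inhibitors of the alpha-MSH evoked signal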
[26] = target: T6, Sphingosine 1-phosphate receptor 4 (Homo sapiens, UniProt O95977); assay: Fluorescence dose response cell-based high throughput screening assay for antagonists of the Sphingosine 1-Phosphate Receptor 4 (S1P4). [Related pubchem assays: 1524 (Confirmation in triplicates.), 1510 (Primary screen.)]; type: functional
T6 sequence (O95977 whole entry): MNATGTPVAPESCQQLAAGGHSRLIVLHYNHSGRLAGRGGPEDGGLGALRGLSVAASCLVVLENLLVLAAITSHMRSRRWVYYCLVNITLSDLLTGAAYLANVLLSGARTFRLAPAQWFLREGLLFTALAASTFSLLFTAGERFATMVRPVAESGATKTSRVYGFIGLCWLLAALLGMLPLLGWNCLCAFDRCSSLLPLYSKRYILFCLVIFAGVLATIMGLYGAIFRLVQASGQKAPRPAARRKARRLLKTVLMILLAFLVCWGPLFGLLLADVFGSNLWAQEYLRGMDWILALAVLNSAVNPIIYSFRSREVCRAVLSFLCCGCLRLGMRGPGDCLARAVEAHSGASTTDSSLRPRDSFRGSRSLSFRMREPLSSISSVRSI

[27] = viability loss in HEK293 cells – cell-based, plate reader, cherry-picked samples, cytotoxicity control, dose response (AID 743446); type: functional
[28] = toxicity toward HepG2 liver cells – cell-based, plate reader, cherry-pick, antagonist series, cytotoxicity control, dose response (AID 743416); type: functional
[29] = target: T7, Microphthalmia-associated transcription factor (Homo sapiens, UniProt O75030); assay: reducers of TRPM1 reporter luminescence, concentration series – cell-based, SK-MEL-5, cherry-picked, set 3, MITF inhibitor project, dose response (AID 493073); type: functional;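 further: SK-MEL-5 melanoma cells with luciferase driven by the MITF target TRPM1 promoter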
T7 sequence (O75030 whole entry): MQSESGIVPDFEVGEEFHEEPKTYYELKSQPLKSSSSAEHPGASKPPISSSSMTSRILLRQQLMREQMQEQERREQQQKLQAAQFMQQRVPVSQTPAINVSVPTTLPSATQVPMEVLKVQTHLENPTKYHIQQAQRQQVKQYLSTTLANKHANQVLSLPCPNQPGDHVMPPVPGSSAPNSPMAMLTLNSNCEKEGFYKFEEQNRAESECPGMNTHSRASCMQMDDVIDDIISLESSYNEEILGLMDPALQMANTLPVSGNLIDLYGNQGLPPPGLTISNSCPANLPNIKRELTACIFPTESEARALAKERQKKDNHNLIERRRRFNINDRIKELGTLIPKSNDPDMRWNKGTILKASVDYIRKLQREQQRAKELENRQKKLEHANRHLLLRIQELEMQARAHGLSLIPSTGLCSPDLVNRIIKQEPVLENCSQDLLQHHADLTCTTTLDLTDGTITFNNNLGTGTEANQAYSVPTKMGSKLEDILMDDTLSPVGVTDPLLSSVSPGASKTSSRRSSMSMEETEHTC

[30] = Fluorescence-based cell-based high throughput dose response assay for inhibitors of the interaction of nucleotide-binding oligomerization domain containing 2 (NOD2) and the receptor-interacting serine-threonine kinase 2 (RIPK2).; type: functional, Homo sapiens; conditions: Homo sapiens

CCOC(=O)c1c[nH]nc1N=C(S)Nc1ccccc1
EC50 [1]: < 0.1 µM (active) | EC50 [2]: 0.324 µM (active) | EC50 [3]: 0.38 µM (active) | EC50 [4]: > 67.6 µM (inactive) | EC50 (H4): > 120 µM (not active) | EC50 [5]: 0.352 µM (active)

Cc1c(NC(=O)COC(=O)c2cc(-c3ccc(-c4ccccc4)cc3)nc3ccccc23)c(=O)n(-c2ccccc2)n1C
IC50 (Vero [6]): 21.1 µM (active) | CC50 (Vero [7]): 11.5 µM (active) | CC50 [8]: 2.93 µM (active) | IC50 (Vero [9]): 2.09 µM (active) | IC50 (cells): 0.53 µM (active)

O=C(/C=C/c1ccccc1)CC(=O)c1ccccc1O
EC50 [10]: 2.67 µM (active)

Clc1ccc(Nc2ccc(Cl)nn2)cc1
EC50 [11]: 7.86 µM (active) | EC50 [12]: > 195 µM (not active)

COC(=O)CSc1nc(-c2ccccc2)cc(-c2ccco2)c1C#N
IC50 (Ephrin type-A receptor 4): > 100 µM (not active)

Cc1ccc(NC(S)=NCc2ccc3c(c2)OCO3)cc1C
IC50 [13]: 9.96 µM (active) | IC50 [14]: 10 µM (not active)

N#C/C(=C\c1ccc(O)c(O)c1)C(=O)NCCCc1ccccc1
IC50 [15]: 1.7 µM (active) | IC50 (Large T antigen): 21 µM (active) | AC50 [16]: 15.8 µM (inconclusive)

Cc1ccc(S(=O)(=O)n2nccc2-c2c(-c3ccc(Cl)cc3)noc2C)cc1
EC50 (Ion channel NompC [17]): > 29.9 µM (not active) | EC50 (Ion channel NompC [18]): > 29.9 µM (not active) | EC50 (Mucolipin-3 [19]): 0.325 µM (active) | EC50 (Mucolipin-3 [20]): 0.253 µM (active)

O=c1c(Cl)c(Cl)cnn1-c1ccccc1
AC50 [21]: 7.52 µM (active) | AC50 (Paired box protein Pax-8): 6.1 µM (active) | IC50 [22]: 8.71 µM (active) | AC50 [23]: 25.8 µM (active) | AC50 [24]: 19 µM (active) | AC50 (A-375): 23.8 µM (active) | EC50 [12]: 5.45 µM (active) | AC50 [25]: 16.3 µM (active) | IC50 [26]: 1.86 µM (active) | AC50 [27]: 4.49 µM (active) | AC50 [28]: 14.4 µM (active) | AC50 [29]: 9.54 µM (active) | IC50 [30]: 49.7 µM (inactive)
